Laboratory results reported in ChEMBL document CHEMBL1201862, “PubChem BioAssay data set” (2004).
The source made the active and inactive calls.

What was measured:
[1] = system: Streptococcus sp. 'group A'; assay: Streptococcus pyogenes SK(-)GAS viability under kanamycin – luminescence, BacTiterGlo, confirmation, counter-screen for streptokinase expression inhibitor project, dose response (AID 1900); format: functional, organism-based
[2] = molecular target: T1, Streptokinase A (Streptococcus pyogenes serotype M1, UniProt P10520); assay: viability-normalized secreted streptokinase activity reduction – plasminogen activation absorbance, OD405, dose response (AID 1914); format: functional, Streptococcus pyogenes M1 GAS;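 also: secreted streptokinase activity via plasminogen activation per viability signal from cell pellet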
T1 sequence (P10520 whole entry): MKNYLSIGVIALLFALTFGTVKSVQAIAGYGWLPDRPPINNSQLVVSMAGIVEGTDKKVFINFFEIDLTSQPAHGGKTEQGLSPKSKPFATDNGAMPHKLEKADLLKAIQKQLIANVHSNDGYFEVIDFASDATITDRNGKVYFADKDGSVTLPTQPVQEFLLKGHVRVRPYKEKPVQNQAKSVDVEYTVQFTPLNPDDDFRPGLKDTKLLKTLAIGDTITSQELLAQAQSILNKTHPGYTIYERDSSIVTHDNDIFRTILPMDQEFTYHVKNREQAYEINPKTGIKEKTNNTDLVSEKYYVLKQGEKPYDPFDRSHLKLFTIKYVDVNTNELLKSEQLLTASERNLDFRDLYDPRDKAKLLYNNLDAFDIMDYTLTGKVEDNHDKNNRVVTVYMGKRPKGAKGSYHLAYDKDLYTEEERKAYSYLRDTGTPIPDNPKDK

[3] = Luminescence-based counterscreen assay for KLF5 inhibitors: dose response cell-based high throughput screening assay to identify cytotoxic compounds using the IEC-6 intestinal epithelial cell line. [Related pubchem assays: 1700 (Primary screen.), 1834 (Confirmation screen.), 1858 (Summary AID.), 1905 (Counterscreen.)]; format: functional
[4] = system: Streptococcus; assay: GAS UMAA2166 growth inhibition – luminescence, BacTiterGlo, counter-screen for streptokinase expression inhibitor project, dose response (AID 1915); format: functional, organism-based;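 also: potency for reduction of bacterial viability or growth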
[5] = A549 cell cytotoxicity, dose response, cytotoxicity control, plate reader, cherry-pick, antagonist series (AID 743412); format: functional, cell-based
[6] = toxicity toward HepG2 liver cells – cell-based, plate reader, cherry-pick, antagonist series, cytotoxicity control, dose response (AID 743416); format: functional
[7] = blockers of bursicon-stimulated LGR2 cAMP reporter – cell-based, HEK293, CRE-luciferase reporter, cherry pick, set 2, dose response (AID 743343); format: functional;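 also: transfected cells were stimulated with diluted bursicon conditioned medium after compound addition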
[8] = blockade of melanocortin 4 receptor signaling – cell-based, plate reader, cherry pick, counter-screen for LGR2 antagonist project, dose response (AID 743444); format: functional;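 also: transfected HEK 293 cells stimulated with alpha-MSH peptide; potency of inhibitors of the alpha-MSH evoked signal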
[9] = viability loss in HEK293 cells – cell-based, plate reader, cherry-picked samples, cytotoxicity control, dose response (AID 743446); format: functional
[10] = molecular target: Disintegrin and metalloproteinase domain-containing protein 17 (Homo sapiens, UniProt P78536); assay: exosite inhibitors of ADAM17, dose response, biochemical (AID 743260)
[11] = inhibition of ADAM10 peptide cleavage – biochemical, FRET peptide substrate, recombinant human ADAM10, selectivity assay for ADAM17 exosite inhibitor project, dose response (AID 743259);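 also: ADAM10 enzyme cleaving a FRET peptide substrate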
[12] = Trypanosoma cruzi growth suppression in host cells – NIH3T3 host cells, beta-gal luminescence, confirmation (AID 2044); format: functional, cell-based;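 also: intracellular parasites grown in NIH/3T3 mouse fibroblasts as host cells; luminescent beta-galactosidase reporter signal from transgenic T. cruzi replicating inside host cells; inhibitors lower the luminescence signal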
[13] = microbe, parasite or virus in culture; format: functional; conditions: Mycobacterium tuberculosis
[14] = NIH3T3 cell viability loss – ATP luminescence, mouse fibroblasts, counter-screen, dose response (AID 2010); format: functional, cell-based;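 also: cells exposed to compound for about 90 hours before reading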
[15] = system: INS1; assay: INS-1E survival protection against cytokine death – cell-based, luminescence, retest, dose response (AID 449756); format: functional; conditions: Rattus norvegicus;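 also: cell death triggered by IL-1 beta plus TNF-alpha plus IFN-gamma mixture; protective hits raise ATP signal compared with cytokine alone wells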
[16] = cells
[17] = molecular target: Luciferin 4-monooxygenase (Photinus pyralis, UniProt P08659); assay: inhibition of purified Photinus pyralis luciferase – biochemical, luminescence, dose response (AID 1891)
[18] = Luminescence Cell-Based Dose Confirmation HTS to Identify Inhibitors of Platelet Dense Granule Release. [Related pubchem assays: 1663 (Primary HTS), 1678 (Summary of Project)]; format: functional
[19] = molecular target: Protein-tyrosine kinase 2-beta (Homo sapiens, UniProt Q14289);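 also: potency of inhibitors of PYK2 kinase phosphorylation of poly-GT substrate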
[20] = Luminescence Cell-Based Dose Response to Identify Activators of 5'UTR Stem-Loop Driven Prion Protein mRNA Translation in H4-C Neuroglioblastoma Cells. [Related pubchem assays: 1829 (Project Summary), 1814 (Primary HTS)]; format: functional
[21] = Luminescence Cell-Based Dose Confirmation HTS to Identify Activators of 5'UTR Stem-Loop Driven Alpha-Synuclein mRNA Translation in H4 Neuroglioblastoma Cells. [Related pubchem assays: 1829 (Project Summary), 1814 (Primary HTS)]; format: functional
[22] = Luminescence Cell-Based Dose Response HTS to Identify Activators of Luciferase Translation or Activity in H4 […] Cells. [Related pubchem assays: 1829 (Project Summary), 1814 (Primary HTS)]; format: functional
[23] = system: H4; assay: Luminescence Cell-Based Dose Response HTS to Identify Activators of 5'UTR Stem-Loop Driven Prion Protein mRNA Translation in H4 Neuroglioblastoma Cells. [Related pubchem assays: 1829 (Project Summary), 1814 (Primary HTS)]; format: functional; conditions: Homo sapiens
[24] = Luminescence Cell-Based Dose Response to Identify Activators of Luciferase Translation or Activity in H4-C Neuroglioblastoma Cells. [Related pubchem assays: 1829 (Project Summary), 1814 (Primary HTS)]; format: functional
[25] = Luminescence Cell-Based Dose Confirmation to Identify Activators of 5'UTR Stem-Loop Driven Alpha-Synuclein mRNA Translation in H4 Neuroglioblastoma Cells. [Related pubchem assays: 1829 (Project Summary), 1814 (Primary HTS)]; format: functional
[26] = system: HEK293; assay: viability loss in HEK293T cells – cell-based, ATP luminescence, cherry-pick samples, cytotoxicity control, dose response (AID 687005); format: functional; conditions: Homo sapiens;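 also: cells exposed to compound for 48 hours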
[27] = HEK293 Cytotoxicity Assay Measured in Cell-Based System Using Plate Reader - 7071-01_Inhibitor_Dose_CherryPick_Activity_Set2.; format: functional
[28] = viability loss in THP-1 monocytes – THP-1 cells, cytotoxicity control for Vif-APOBEC3G degradation inhibitor project, dose response (AID 1117359); format: functional; conditions: THP-1
[29] = HPDE-C7 pancreatic duct cell viability loss – fluorescence, HTS (AID 430); format: functional, cell-based; conditions: Homo sapiens
[30] = viability loss of HPDE-C7K cells – cell-based, fluorescence, HTS, primary screen (AID 431); format: functional; conditions: Homo sapiens
[31] = molecular target: Sphingosine 1-phosphate receptor 2 (Homo sapiens, UniProt O95136); assay: Dose Response Cell Based Assay for Antagonists of the S1P2 Receptor. [Related pubchem assays: 856, 736 ]; format: functional
[32] = HIV-1 Vif–A3G interaction blockers – biochemical, TR-FRET, GST-Vif 1-94, biotin-A3G peptide, dose response retest, primary screen (AID 1117319); format: functional;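 also: TR-FRET signal of purified GST-Vif binding a biotinylated A3G peptide; inhibitors lower the FRET signal by blocking Vif and A3G binding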

Sphingosine 1-phosphate receptor 2, sequence (O95136 whole entry): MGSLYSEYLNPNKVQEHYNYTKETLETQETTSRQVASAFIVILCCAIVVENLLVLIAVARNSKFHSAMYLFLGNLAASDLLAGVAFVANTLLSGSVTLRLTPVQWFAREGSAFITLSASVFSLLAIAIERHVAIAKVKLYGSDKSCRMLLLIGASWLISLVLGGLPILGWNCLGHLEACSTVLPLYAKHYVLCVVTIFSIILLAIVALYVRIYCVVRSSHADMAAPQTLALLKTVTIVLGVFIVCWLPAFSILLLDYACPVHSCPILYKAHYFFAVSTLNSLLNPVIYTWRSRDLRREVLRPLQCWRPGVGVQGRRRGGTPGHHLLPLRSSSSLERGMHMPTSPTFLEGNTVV
Disintegrin and metalloproteinase domain-containing protein 17, sequence (P78536 whole entry, the tested form may be a part): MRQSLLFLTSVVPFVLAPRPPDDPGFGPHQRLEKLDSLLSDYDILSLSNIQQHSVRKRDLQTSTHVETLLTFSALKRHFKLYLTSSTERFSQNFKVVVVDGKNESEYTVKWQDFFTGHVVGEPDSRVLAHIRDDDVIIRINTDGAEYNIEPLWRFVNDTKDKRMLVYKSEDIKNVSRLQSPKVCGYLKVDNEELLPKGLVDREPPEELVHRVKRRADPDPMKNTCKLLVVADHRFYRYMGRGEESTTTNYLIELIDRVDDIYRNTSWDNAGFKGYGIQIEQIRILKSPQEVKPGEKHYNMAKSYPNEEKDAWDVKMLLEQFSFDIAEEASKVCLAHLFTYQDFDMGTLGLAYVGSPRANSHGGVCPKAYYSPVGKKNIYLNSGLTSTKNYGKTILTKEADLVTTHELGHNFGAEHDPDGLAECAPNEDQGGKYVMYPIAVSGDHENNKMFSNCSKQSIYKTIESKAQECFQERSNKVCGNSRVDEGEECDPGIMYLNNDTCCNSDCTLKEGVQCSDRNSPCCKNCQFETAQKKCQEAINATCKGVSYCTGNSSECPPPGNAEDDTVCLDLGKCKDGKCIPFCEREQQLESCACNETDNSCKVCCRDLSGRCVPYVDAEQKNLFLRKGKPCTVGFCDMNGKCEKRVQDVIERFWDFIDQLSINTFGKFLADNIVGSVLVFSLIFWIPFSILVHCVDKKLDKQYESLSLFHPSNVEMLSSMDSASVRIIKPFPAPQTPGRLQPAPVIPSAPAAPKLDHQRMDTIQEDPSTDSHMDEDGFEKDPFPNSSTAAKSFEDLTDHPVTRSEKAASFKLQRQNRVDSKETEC
Luciferin 4-monooxygenase, sequence (P08659 whole entry): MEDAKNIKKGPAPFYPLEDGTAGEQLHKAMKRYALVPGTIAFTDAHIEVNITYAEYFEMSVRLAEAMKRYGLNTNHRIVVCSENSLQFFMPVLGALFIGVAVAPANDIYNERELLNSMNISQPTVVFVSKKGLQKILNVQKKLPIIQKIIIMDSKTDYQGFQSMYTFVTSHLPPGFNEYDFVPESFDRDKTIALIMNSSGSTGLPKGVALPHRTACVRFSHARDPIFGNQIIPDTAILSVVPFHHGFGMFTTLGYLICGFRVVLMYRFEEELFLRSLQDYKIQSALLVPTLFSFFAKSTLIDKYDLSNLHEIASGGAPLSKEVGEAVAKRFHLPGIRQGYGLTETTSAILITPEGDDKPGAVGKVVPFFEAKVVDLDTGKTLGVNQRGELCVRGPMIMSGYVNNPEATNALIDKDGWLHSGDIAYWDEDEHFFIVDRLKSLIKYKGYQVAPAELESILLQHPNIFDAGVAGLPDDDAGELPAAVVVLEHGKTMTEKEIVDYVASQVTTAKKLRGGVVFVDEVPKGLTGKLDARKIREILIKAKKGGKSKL
Protein-tyrosine kinase 2-beta, sequence (Q14289 whole entry): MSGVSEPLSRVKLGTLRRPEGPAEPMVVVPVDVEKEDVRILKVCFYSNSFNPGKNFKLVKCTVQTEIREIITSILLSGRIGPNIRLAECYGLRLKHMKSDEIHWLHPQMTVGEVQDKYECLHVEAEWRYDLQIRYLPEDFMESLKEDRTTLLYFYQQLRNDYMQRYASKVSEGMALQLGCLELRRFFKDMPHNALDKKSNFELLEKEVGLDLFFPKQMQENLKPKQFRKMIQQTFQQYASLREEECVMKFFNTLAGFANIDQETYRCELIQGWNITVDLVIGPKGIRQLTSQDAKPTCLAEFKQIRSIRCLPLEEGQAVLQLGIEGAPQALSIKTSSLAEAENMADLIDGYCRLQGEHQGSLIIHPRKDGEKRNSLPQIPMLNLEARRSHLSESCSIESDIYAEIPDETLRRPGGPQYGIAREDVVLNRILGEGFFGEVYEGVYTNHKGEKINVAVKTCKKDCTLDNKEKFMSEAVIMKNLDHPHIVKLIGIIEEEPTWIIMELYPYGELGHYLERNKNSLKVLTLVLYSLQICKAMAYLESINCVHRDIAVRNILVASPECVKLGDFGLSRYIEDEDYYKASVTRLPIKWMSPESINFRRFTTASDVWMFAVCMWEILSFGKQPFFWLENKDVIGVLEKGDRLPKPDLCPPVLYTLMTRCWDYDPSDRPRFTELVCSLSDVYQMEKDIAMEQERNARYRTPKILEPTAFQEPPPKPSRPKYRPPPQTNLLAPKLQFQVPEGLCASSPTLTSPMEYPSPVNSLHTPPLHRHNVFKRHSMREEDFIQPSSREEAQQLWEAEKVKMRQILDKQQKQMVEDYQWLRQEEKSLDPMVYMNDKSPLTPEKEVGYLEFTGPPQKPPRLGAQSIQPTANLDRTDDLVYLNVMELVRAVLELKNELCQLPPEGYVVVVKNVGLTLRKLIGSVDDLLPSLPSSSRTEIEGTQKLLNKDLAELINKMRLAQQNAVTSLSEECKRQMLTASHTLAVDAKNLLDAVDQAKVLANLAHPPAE

CC(C)Oc1ccc(C(=O)Nc2nc3ccccc3[nH]2)cc1
EC50 [1]: 3.4 µM (active)
EC50 [2]: > 150 µM (not active)
IC50 [3]: 17.8 µM (not active)
EC50 [4]: 28.6 µM (active)
AC50 [5]: 18.8 µM (active)
AC50 [6]: 15.1 µM (active)
AC50 [7]: 1.2 µM (active)
AC50 [8]: 2.16 µM (active)
AC50 [9]: 16.2 µM (active)

Cc1nc2ccc(NC(=O)c3ccc(S(=O)(=O)N(C)c4ccccc4)cc3)cc2s1
IC50 [10]: > 69.5 µM (inactive)
IC50 [11]: > 69.5 µM (inactive)

COc1ccc(-c2cc3ccccc3oc2=O)cc1NC(=O)c1ccc([N+](=O)[O-])o1
EC50 [12]: < 0.1 µM (active)
CC50 [13]: > 40 µM (active)
EC50 [14]: 9.47 µM (active)
AC50 [15]: 10.7 µM (active)
EC50 [16]: 0.262 µM (active)

CN1C(=O)/C(=C/c2cn(CC(=O)N3CCCCC3)c3ccccc23)c2ccccc21
EC50 [17]: > 112 µM (not active)
EC50 [18]: > 112 µM (not active)
IC50 [19]: 46.6 µM (not active)

c1ccc2c(c1)Cn1nc(Cc3nc4c(s3)CCCC4)nc1-2
EC50 [20]: > 12 µM (not active)
EC50 [21]: < 0.1 µM (active)
EC50 [22]: 7.06 µM (active)
EC50 [23]: 10.3 µM (active)
EC50 [24]: > 12 µM (not active)
EC50 [25]: > 3.8 µM (not active)

Cc1ccc(N(CC(=O)NCCSCc2ccco2)S(=O)(=O)c2ccc(F)cc2)cc1
AC50 [26]: 31.9 µM (active)
AC50 [27]: 31.9 µM (active)
CC50 [28]: > 40 µM (active)

Cc1ccc2nc(C(F)(F)F)c(C#N)c(N)c2c1
EC50 [29]: > 20 µM (not active)
EC50 [30]: 7.2 µM (active)
AC50 [5]: 24.2 µM (active)
AC50 [6]: 16 µM (active)
AC50 [7]: 22.9 µM (active)
AC50 [9]: > 52 µM (inactive)

COC(=O)c1sc2cc(C(F)(F)F)cnc2c1-c1ccccn1
IC50 [31]: > 30 µM (not active)

COC(=O)c1ccc(-n2nnnc2SCC(=O)Nc2cc(OC)ccc2OC)cc1
IC50 [32]: > 100 µM (active)
